Measured values: patent EP0355612B1, “Furylthiazole derivatives, processes for the preparation thereof and pharmaceutical composition comprising the same” (FUJISAWA PHARMACEUTICAL CO., LTD., priority 1988, dated 1990)

What was measured:
[1] = biological target: T1, H₂-receptor (Cavia porcellus, UniProt P47747); experiment: Test B: H₂-receptor antagonism in isolated guinea-pig atrium; type: cell-based; conditions: test compound 1 x 10⁻⁶ g/ml; histamine (1 x 10⁻⁶ g/ml)-induced increase in beating rate, before and 30 minutes after dosing
T1 construct: from tissue; host or cells: isolated guinea-pig atrial strip
T1 sequence (P47747 whole entry): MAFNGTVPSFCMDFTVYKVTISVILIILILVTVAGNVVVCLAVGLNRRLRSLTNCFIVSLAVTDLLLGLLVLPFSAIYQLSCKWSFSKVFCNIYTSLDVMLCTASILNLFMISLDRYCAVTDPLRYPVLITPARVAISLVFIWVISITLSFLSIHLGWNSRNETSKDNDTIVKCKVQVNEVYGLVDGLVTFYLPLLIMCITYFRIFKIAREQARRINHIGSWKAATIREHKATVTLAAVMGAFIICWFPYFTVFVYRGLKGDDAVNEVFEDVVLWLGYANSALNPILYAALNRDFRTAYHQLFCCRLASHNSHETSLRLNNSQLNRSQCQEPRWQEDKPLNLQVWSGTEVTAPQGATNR
Protocol: Test B (H₂-receptor antagonism in isolated guinea-pig atrium):
The atrial strip isolated from guinea-pig was suspended under an initial tension 0.3 to 0.6 g in an organ bath containing Tyrode solution at 30°C, aerated 95%O₂-5%CO₂ gas. The beating rate and amplitude of contraction of the atrium were recorded by means of a transducer and a polygraph. Histamine (1 x 10⁻⁶ g/ml) was added to the bathing fluid and the increase in beating rate after dosing was measured. Addition of test compounds (1 x 10⁻⁶ g/ml) was made 30 minutes after washing out histamine. Inhibitory effect of test compound was calculated by comparing histamine-induced increases in beating rate before and 30 minutes after dosing with the test compounds.

[2] = tested on: lumen perfused stomach in anesthetized rats; experiment: Test D: Gastric secretion from lumen perfused stomach in anesthetized rats (histamine-stimulated); type: in vivo, Sprague-Dawley rats; conditions: maximal inhibition of acid output; histamine 3 mg/kg/hr intravenous infusion; test compound 1 mg/kg intravenously
Protocol: Test D (Gastric secretion from lumen perfused stomach in anesthetized rats):
Male Sprague-Dawley rats weighing about 250 g were used. Rats were deprived of food but allowed free access to water for 24 hours. The animals were anesthetized with 1.25 g/kg urethane intraperitoneally. The abdomen was opened and the gastric lumen was perfused with saline throughout the experiment. The perfusate was titrated by an autotitrator with 25 mM sodium hydroxide as a titrant. Gastric secretion was stimulated by intravenous infusion with histamine (3 mg/kg/hr). After reaching plateau, test compound (1 mg/kg) was given intravenously. Drug effect was expressed as maximal inhibition by acid output.

[3] = tested on: male Sprague-Dawley rats; experiment: Test C: Inhibition of stress ulcer (restraint and water immersion); type: in vivo; conditions: mean area of ulcers vs control animals; test compound 32 mg/kg orally; seven hours immobilized in water bath at 22°C
Protocol: Test C (Inhibition of stress ulcer):
Five male Sprague-Dawley rats, aged 7 weeks and weighing about 200 g were used per group for the study on stress ulcer after the fast for 24 hours. Each animal was immobilized in a restrain cage and immersed to a level of the xiphoid in a water bath kept 22°C. Each of the test compounds (32 mg/kg) suspended in 0.1% methylcellulose solution was administered orally just before the immobilization. Seven hours later, the animals were sacrificed and their stomachs were removed. The stomach was then fixed with 2% formalin. The area of ulcers was measured for each animal, and percentage of inhibition was calculated by comparing the mean area of ulcers (mm²) in the test animals with that in the control animals.

SMILES | H₂ Antagonism (%) [1] [%] | Inhibition (%) [2] [%] | Inhibition (%) [3] [%]
CNC(=NC#N)NCc1ccc(-c2csc(N=C(N)N)n2)o1 [Test Compound (b), 4-[5-(2-Cyano-3-methylguanidino)methylfuran-2-yl]-2-(diaminomethyleneamino)thiazole] | 90.7 | – | –
CNC(=O)NCc1ccc(-c2csc(N=C(N)N)n2)o1 [Test Compound (c)] | 89.1 | – | –
NC(N)=Nc1nc(-c2ccc(CC(N)=NS(N)(=O)=O)o2)cs1 [Test Compound (d), 4-[5-(2-Amino-2-aminosulfonyliminoethyl)furan-2-yl]-2-(diaminomethyleneamino)thiazole] | – | 99 | 86.6
